Results reported in US20220098197A1, “SALTS OF HETEROCYCLIC COMPOUND AND USE THEREOF” (priority 2019, published 2022).

Key:
LPS-induced ALI mice = assay: LPS-induced ALI model: oxygen saturation (SO2); format: in vivo, Balb/c mice; details: CT-NA 10 or 30 mg/kg (P<0.01, dose-dependent), Dex 1 mg/kg; 24 hrs after LPS
Experimental: Specific pathogen-free (SPF) Balb/c mice (♂/♀; 20-26 g; 8 weeks old) were purchased from Shanghai SIPPR-BK Experimental Animal Co., Ltd. Mice were kept in an isolated ventilated cage in an environment of 40-60% humidity, 24±2° C., and 12 hrs/12 hrs dark-light cycle, and had free access to food and water. The method for preparing the LPS-induced ALI model was simply described as follows. The mice were randomly divided into a control group (12 mice) and an LPS group (48 mice). The LPS group (48 mice) was further divided into four subgroups (12 mice in each subgroup). The unanaesthetized mice in the four subgroups of LPS were intragastrically administered with normal saline (NS), CT-NA at 10 mg/kg or 30 mg/kg, and Dex at 1 mg/kg, respectively. One hour later, the mice were anesthetized with sodium pentobarbital (intraperitoneal injection at 40 mg/kg), and then subjected to intratracheal instillation of NS to control group and LPS (4 mg/kg) to all LPS subgroups. 12 hrs later, the unanaesthetized mice of the LPS group were intragastrically administered with NS, CT-NA at 10 mg/kg or 30 mg/kg, or Dex at 1 mg/kg, respectively (FIG. 16). […] 24 hrs after LPS challenge, the oxygen saturation (SO2) of all mice was measured by a Moor VMS-OXY™ instrument which measured SO2 (%) in the microcirculation at the wavelength range of 500 to 650 nm. […]

[1] = Stability test (influencing factors: light, high temperature, high humidity); format: physicochemical
Experimental: Test process: An appropriate amount of each test sample was placed on a clean watch glass without a lid and then placed under the conditions of light 4500 lx±500 lx, high temperature of 60° C., high humidity of 92.5% RH for 5 days and 10 days, respectively. The properties and related substances were determined and the results were compared with the results at day 0 to observe the stability.
The test method for related substances was as follows.
Preparation of test sample solution: About 10 mg of each test sample was placed in a 10 ml volumetric flask, and 50% acetonitrile aqueous solution was added to dissolve sample, and diluted to the mark, shaken well, and filtered to obtain the test sample solution. A precise amount of 10 μl of the test sample solution was taken and injected according to the above chromatographic method, and the maximum single impurity and total impurity were calculated according to the area normalization method.

CS-induced ALI mice = assay: CS-induced lung injury model: partial pressure of oxygen (PO2); format: in vivo, Balb/c mice; details: CT-NA 10 and 30 mg/kg intragastric; 24 hrs after last CS exposure; p<0.01
Experimental: Specific pathogen-free (SPF) female Balb/c mice (22-28 g; aged 8 weeks) were purchased from Shanghai SIPPR-BK Experimental Animal Co., Ltd. […] Model preparation: The mice were randomly divided into 5 groups (12 mice in each group), which were the control group (the mice were exposed to fresh air), the saline group (the mice were exposed to cigarette smoke), dexamethasone (Dex) group (1 mg/kg) (the mice were exposed to cigarette smoke), CT-NA 10 mg/kg group and CT-NA 30 mg/kg group (the mice were exposed to cigarette smoke). According to the grouping, the mice were intragastrically administered saline, Dex and CT-NA, respectively. Thereafter, the mice were exposed to fresh air or cigarette smoke generated from 3R4F research-grade cigarettes (containing about 600 mg TPM/m^3 and 29.9 mg nicotine/m^3) in a cuboid plastic box (65×50x×45 cm). Ten cigarettes were burned every day for seven days. After one cigarette was burned, the next cigarette was ignited. The daily body weight and general condition of the mice were checked. 24 hrs after the last exposure to the cigarette smoke, the partial pressure of oxygen (PO2) of all mice was measured by the Moor VMS-OXY™ measuring instrument, which was used to measure the oxygenated/deoxygenated hemoglobin concentration and oxygen saturation (percentage) in the microcirculation at the wavelength range of 500 to 650 nm. […]

RAW264.7 macrophages = assay: Cell viability (MTT) assay with LPS/PGD2, RAW264.7; format: cell-based, mouse
Experimental: The cell lines of RAW 264.7 macrophages and mouse leukemia mononuclear macrophages were purchased from ATCC (Manassas, Va.), and cultured in RPMI-1640 medium containing penicillin (100 U/ml), streptomycin (100 μg/ml) and 10% fetal bovine serum. RAW264.7 macrophage is an excellent model for screening anti-inflammatory drugs and evaluating the inhibitor pathways that stimulated the production of pro-inflammatory cytokines and enzymes. MTT was used to determine the cytotoxicity of CT-NA alone and its combination with PGD2 and LPS on RAW264.7 macrophages and isolated peritoneal macrophages according to the manufacturer's protocol. Briefly, RAW 264.7 macrophages were plated in a 96-well plate at a concentration of 4×10^5 cells/ml for 12 hrs, and then exposed to CT-NA (0-200 μM) at 37° C. for 1 hour. Next, RAW 264.7 macrophages were further exposed to LPS (100 ng/ml) and PGD2 (10 μM) for 24 hrs, and then treated with MTT (5 mg/ml) at 37° C. for 4 hrs. Then, the supernatant of each well was replaced with DMSO (200 μl/well), and the absorbance was measured at 570 nm.

[2] = high temperature 60° C., Day 10
[3] = light condition 4500 lx±500 lx, Day 5
[4] = light condition 4500 lx±500 lx, Day 10

With `CN([C@@H]1CCc2c(CC(=O)[O-])c3cccnc3n2C1)S(=O)(=O)c1ccc(F)cc1.[Na+]` [Sodium salt hydrate] the “oxygen saturation (SO2)” value (LPS-induced ALI mice) was “significantly increased”, the “stability under high temperature and high humidity conditions (in words)” value ([1]; 60° C., 92.5% RH, 5 and 10 days) was “relatively stable” and the “maximum single impurity %” value ([1]; Day 0) was 0.03%. The property ([1]; Day 0) was “white powder”, the total impurity % ([1]; Day 0) was 0.07% and the “maximum single impurity %” value ([1]; high humidity 92.5% RH, Day 5) was 0.02%. The property ([1]; high humidity 92.5% RH, Day 5) was “white powder”, the total impurity % ([1]; high humidity 92.5% RH, Day 5) was 0.07% and the “maximum single impurity %” value ([1]; high humidity 92.5% RH, Day 10) was 0.02%. The property ([1]; high humidity 92.5% RH, Day 10) was “white powder”, the total impurity % ([1]; high humidity 92.5% RH, Day 10) was 0.06% and the “maximum single impurity %” value ([1]; high temperature 60° C., Day 5) was 0.02%. For the same compound, the property ([1]; high temperature 60° C., Day 5) was “white powder”, the total impurity % ([1]; high temperature 60° C., Day 5) was 0.07% and the “maximum single impurity %” value [1, 2] was 0.02%. The property [1, 2] was “white powder”, the total impurity % [1, 2] was 0.09% and the “maximum single impurity %” value [1, 3] was 0.06%. For the same compound, the property [1, 3] was “light yellow powder”, the total impurity % [1, 3] was 0.16% and the “maximum single impurity %” value [1, 4] was 0.15%. The property [1, 4] was “light yellow powder”, the total impurity % [1, 4] was 0.26% and the “partial pressure of oxygen (PO2)” value (CS-induced ALI mice) was “significantly elevated”. The “cytotoxicity (MTT), LPS plus CT-NA” value (RAW264.7 macrophages; LPS (100 ng/ml) plus CT-NA up to 100 μM) was “non-toxic” and the “cytotoxicity (MTT), PGD2 plus CT-NA” value (RAW264.7 macrophages; PGD2 (10 μM) plus CT-NA up to 100 μM) was “non-toxic”.
